Results published in patent publication US12522614B2, “Topical phosphoinositide 3-kinase inhibitors” (VENTHERA, INC., priority 2019, dated 2026).
Each block holds one compound with its values, some of them ahead of it.

What was measured:
[1] = In vitro human skin permeation study of topical gel formulations (Franz diffusion cells); assay type: in vitro ADME; settings: saturated gel formulations, skin flux experiments
Description: The gel formulation of Example 8 was used as the donor phase to determine the permeation of Compound 1.002 through human skin and its effectiveness as a topical application. Three skin donors and three diffusion cells (for each donor) per formulation were used in the in vitro skin permeation experiments. Split thickness dermatomed (approximately at […] thickness) human cadaver skin, supplied by New York Firefighters Skin Bank, NY, was used to determine the permeation rate of the tested compound (i.e., the drug) in vitro. All in vitro skin permeation studies were conducted using the Vertical Diffusion Cells assembly with consoles (Model FDC-6), and heating controllers (Logan Instruments Inc. Somerset, NJ). Each assembly consisted of six vertical, jacketed (37° C.±0.5° C.) 12-mL Franz diffusion cells with magnetic stirrer and 1.767 cm^2 diffusion area.
(§1) Skin flux studies were run for a period of 48 hours. At predetermined intervals (2, 4, 8, 24 and 48 hours) after starting the experiment, the entire contents of the receiver compartment were collected for determining concentrations of the drug by HPLC. The receiver compartment was refilled with fresh receiver medium. The receiver medium was pH 7.4 phosphate buffer with 0.5 mg/ml of Oleath 20 with the saturation concentration of the drug in the receptor medium being 0.152 mg/ml. This solubility of the drug in the receiver medium was enough to ensure sink conditions throughout each collection interval.
Samples of the receptor phase were obtained at 2, 4, 8, 12, 24 and 48 h and concentrations of Compound 1.002 and 3-(4-morpholinothieno(3,2-d)pyrimidin-2-yl)phenol (metabolite of Compound 1.002, abbreviated as MTPP) were determined using a validated HPLC method. The metabolism of Compound 1.002 to MTPP takes place in the human skin by esterase enzymes.
HPLC method: Column—Gemini C-18 4.6×150 mm, 5 μm particle size; Mobile Phase—water:acetonitrile 25:75 containing 0.1% TFA; Flow Rate—1 mL/min; Detection—274 nm; Column Temperature—40° C.; and Run Time—10 min. The retention times for MTPP and Compound 1.002 were 3.9 and 7.2 minutes, respectively.
The skin flux of drugs and cumulative amount of drugs permeated (sum of MTPP and Compound 1.002) for a period of 48 hours were calculated and are shown in Table 3. FIG. 3 represents a plot of Cumulative amount permeated versus time.

[2] = Saturation concentration in formulation or receiver medium; assay type: physicochemical; settings: gel formulation with excipients of Example 8 (Table 2)
Protocol: The liquid excipients, i.e. DMSO, oleic acid, Transcutol® P, and dipropylene glycol were mixed in a 20-mL vial, by vortex agitation. The active ingredient, a compound of formula (I), for example Compound 1.002 was then added, and the vial content was sonicated for 10 minutes to dissolve the compound. […] Hydroxylpropyl cellulose (HPC) was added, and the vial was agitated by vortex for another ten minutes to obtain the gel formulation. The viscosity of the clear gel was measured to be in a range of about 7,000 to 10,000 centipoise (cp).
as §1

[3] = Accelerated stability study of topical gel formulations at 80° C.; assay type: physicochemical; settings: gel formulation (Table 2 excipients), 80° C.
Protocol: Topical gel formulations were prepared using excipients as shown in Table 2 according to Example 8, in which Compounds 1.002, 1.012, and 1.006 were used as the active ingredient, respectively. These gel formulations were subjected to stability study at 80° C. for 10 days. Stability under the condition of at 80° C. for 10 days is expected to be approximately equivalent to the stability for three (3) years at room temperature. A relative purity of the tested compound after being exposed for 5 days and 10 days at 80° C. was determined by HPLC, as compared to its initial purity (at day 0).
The values shown in the table are percent hydrolysis of the respective compounds to the parent compound MTPP.
Topical gel formulations of Compound 1.002 were prepared using excipients as shown in Table 2 according to Example 8, in which the content of oleic acid varied at 1%, 2%, 5%, and 10%, respectively. These gel formulations were subjected to stability study at 80° C. for 10 days, which is expected to be approximately equivalent to the stability for three (3) years at room temperature. A purity of the tested compound on day 0, 5, 7, and 10 at 80° C. was determined by HPLC. The detected impurity of the tested compound appears to be the hydrolysis product, as MTPP. Table 17 represents stability data of Compound 1.002 in topical formulations having oleic acid at various contents.
Gel formulations of Example 17 were subjected to stability study at 80° C. for 10 days. Stability under the condition of at 80° C. for 10 days is expected to be approximately equivalent to the stability for three (3) years at room temperature. A relative purity of Compound 1.002 after being exposed for 5 days and 10 days at 80° C. was determined by HPLC, as compared to its initial purity (at day 0).

[4] = In vitro human skin permeation study of topical gel formulations (Franz diffusion cells); assay type: in vitro ADME; settings: human skin; for Cumulative permeation, Compound 1.012 / Hydrolysis of Cmpd. 1.012 to MTPP: Study-6, gel saturated at 58 mg/mL; for Cumulative permeation (intact compound): Study-4, saturated gel
MTOR/FRAP1 = molecular target: T1, MTOR/FRAP1 (Homo sapiens, UniProt P42345); test: Lipid kinase inhibitory activity, ADP-Glo; assay type: biochemical
T1 construct: purchased Reaction Biology Corporation (RBC)
Protocol: (§2) Lipid kinases: Lipid kinases from Reaction Biology Corporation (RBC) in ADP-Glo format were used.
(§3) Assay Description: The kinase reactions utilized ATP and produced ADP as a byproduct. The ADP production was quantified by ADP-Glo luminescence detection. This assay was a 3-step reaction. First, the kinase reaction with lipid substrate was carried out in the presence of ATP, and the reaction was quenched and depleted remaining ATP with ADP-Glo™ reagent, and then finally ADP was converted to ATP which was measured using a luciferase/luciferin reaction.
(§4) Assay Procedure: The assay was performed according to the steps as follows: • 1. Preparing substrate in freshly prepared reaction buffer; • 2. Delivering kinase into the substrate solution and gently mixing; • 3. Delivering compounds in […] into the kinase reaction mixture by Acoustic technology (Echo550; nanoliter range), incubating for 20 minutes at room temperature; • 4. Delivering ATP into the reaction mixture to initiate the reaction; • 5. Incubating for 30 minutes at 30° C.; • 6. Quenching the reaction with ADP-Glo reagent and incubating for 40 minutes; • 7. Adding Detection Mixture and incubating for 30 minutes; and • 8. Measuring luminescence.
(§5) Data Analysis: The luminescence was converted into μM ADP production based on ADP standard curves. The nonlinear regression to obtain the standard curve and IC50 values were performed using Graphpad Prism software.

PI3K (p110a(E542K)/p85a) = molecular target: T2, PI3K (p110a(E542K)/p85a) (Homo sapiens, UniProt P42336, E542K); test: Lipid kinase inhibitory activity, ADP-Glo; assay type: biochemical; settings: α E542K
T2 construct: purchased Reaction Biology Corporation (RBC)
Protocol: as §2, §3, §4, §5

PI3K (p110a(E545K)/p85a) = molecular target: T3, PI3K (p110a(E545K)/p85a) (Homo sapiens, UniProt P42336, E545K); test: Lipid kinase inhibitory activity, ADP-Glo; assay type: biochemical; settings: α E545K
T3 construct: purchased Reaction Biology Corporation (RBC)
Protocol: as §2, §3, §4, §5

[5] = molecular target: T4, PI3K (p110a(H1047R)/p85a) (Homo sapiens, UniProt P42336, H1047R); test: Lipid kinase inhibitory activity, ADP-Glo; assay type: biochemical; settings: α H1047R
T4 construct: purchased Reaction Biology Corporation (RBC)
T4 sequence (P42336 whole entry H1047R): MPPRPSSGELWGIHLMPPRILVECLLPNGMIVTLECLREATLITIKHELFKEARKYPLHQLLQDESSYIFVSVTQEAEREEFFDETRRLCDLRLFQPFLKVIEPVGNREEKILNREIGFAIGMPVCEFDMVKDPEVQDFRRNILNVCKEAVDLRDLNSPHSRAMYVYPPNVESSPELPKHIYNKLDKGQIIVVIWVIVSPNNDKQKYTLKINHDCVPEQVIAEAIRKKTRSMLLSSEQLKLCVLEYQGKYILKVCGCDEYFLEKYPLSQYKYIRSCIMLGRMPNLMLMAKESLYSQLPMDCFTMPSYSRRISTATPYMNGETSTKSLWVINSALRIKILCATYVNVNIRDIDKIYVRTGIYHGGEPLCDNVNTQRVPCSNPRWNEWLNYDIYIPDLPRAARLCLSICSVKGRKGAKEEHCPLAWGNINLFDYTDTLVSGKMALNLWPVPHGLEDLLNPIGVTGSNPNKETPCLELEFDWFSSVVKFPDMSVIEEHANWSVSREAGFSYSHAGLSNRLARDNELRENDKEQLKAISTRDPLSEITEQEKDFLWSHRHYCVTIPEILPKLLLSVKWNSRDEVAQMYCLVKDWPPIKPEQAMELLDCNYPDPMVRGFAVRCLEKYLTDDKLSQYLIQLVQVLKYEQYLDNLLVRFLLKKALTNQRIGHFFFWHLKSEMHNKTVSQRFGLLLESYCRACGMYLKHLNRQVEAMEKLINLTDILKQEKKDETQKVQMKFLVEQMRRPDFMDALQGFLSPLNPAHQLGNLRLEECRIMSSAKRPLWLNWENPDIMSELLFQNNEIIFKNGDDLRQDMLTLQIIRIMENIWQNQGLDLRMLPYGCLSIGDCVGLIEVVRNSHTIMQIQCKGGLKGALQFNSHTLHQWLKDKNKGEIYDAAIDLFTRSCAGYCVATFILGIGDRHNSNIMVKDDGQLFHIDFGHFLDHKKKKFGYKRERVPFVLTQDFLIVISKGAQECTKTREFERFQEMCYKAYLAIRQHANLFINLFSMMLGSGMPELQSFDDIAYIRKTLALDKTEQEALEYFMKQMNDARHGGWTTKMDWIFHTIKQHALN
T4 sequence (P27986 whole entry partner): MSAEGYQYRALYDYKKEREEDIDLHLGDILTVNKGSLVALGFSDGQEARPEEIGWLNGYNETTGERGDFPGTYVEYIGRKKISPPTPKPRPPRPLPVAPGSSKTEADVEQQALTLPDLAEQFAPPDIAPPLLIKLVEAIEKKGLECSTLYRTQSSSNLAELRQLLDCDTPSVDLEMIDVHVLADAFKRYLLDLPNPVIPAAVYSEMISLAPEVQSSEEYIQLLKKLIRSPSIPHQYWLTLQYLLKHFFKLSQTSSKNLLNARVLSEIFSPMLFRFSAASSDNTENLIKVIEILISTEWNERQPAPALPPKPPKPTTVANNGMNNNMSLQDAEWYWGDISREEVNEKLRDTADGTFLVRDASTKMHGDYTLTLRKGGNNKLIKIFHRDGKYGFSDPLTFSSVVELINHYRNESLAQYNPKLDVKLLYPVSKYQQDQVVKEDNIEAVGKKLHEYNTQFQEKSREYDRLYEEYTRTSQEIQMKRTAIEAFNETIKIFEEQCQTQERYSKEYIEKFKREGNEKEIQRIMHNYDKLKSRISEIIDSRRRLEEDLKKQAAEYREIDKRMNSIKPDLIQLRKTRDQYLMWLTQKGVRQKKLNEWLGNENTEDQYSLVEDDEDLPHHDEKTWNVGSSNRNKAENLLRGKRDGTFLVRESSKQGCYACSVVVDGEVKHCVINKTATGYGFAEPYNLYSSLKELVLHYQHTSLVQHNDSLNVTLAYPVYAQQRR
Protocol: as §2, §3, §4, §5

PI3Ka (p110a/p85a) = molecular target: T5, PI3Ka (p110a/p85a) (Homo sapiens, UniProt P42336); test: Lipid kinase inhibitory activity, ADP-Glo; assay type: biochemical; settings: α
T5 construct: purchased Reaction Biology Corporation (RBC)
Protocol: as §2, §3, §4, §5

PI3Kb (p110b/p85a) = molecular target: T6, PI3Kb (p110b/p85a) (Homo sapiens, UniProt P42338); test: Lipid kinase inhibitory activity, ADP-Glo; assay type: biochemical; settings: β
T6 construct: purchased Reaction Biology Corporation (RBC)
T6 sequence (P42338 whole entry): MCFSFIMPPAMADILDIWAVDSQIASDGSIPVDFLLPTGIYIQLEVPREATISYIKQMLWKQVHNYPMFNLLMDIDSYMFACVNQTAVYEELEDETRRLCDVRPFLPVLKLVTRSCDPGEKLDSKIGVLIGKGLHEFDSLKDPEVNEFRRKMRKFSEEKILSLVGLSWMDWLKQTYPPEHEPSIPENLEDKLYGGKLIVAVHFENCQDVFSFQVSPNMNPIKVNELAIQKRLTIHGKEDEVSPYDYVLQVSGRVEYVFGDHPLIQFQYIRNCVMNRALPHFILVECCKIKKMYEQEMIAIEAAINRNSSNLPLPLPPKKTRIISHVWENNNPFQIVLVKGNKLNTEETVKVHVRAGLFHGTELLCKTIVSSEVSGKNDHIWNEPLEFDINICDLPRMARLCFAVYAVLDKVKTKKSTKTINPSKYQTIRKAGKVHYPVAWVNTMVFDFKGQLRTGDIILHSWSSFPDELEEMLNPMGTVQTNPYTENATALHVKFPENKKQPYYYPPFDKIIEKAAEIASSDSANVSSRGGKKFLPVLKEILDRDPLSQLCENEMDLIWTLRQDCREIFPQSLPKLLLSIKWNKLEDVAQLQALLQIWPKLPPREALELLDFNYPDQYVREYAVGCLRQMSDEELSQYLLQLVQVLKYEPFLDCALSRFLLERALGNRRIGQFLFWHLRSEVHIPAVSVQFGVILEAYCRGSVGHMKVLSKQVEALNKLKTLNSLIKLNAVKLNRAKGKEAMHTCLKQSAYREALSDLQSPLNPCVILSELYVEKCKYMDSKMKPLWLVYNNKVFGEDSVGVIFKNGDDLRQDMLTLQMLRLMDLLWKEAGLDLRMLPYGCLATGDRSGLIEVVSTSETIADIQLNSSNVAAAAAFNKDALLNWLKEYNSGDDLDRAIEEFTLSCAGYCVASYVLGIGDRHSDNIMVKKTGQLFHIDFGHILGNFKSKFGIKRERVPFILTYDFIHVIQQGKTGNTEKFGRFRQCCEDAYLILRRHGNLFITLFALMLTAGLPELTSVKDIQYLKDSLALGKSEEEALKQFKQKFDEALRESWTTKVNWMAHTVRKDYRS
T6 sequence (P27986 whole entry partner): as the sequence (P27986 whole entry partner) above
Protocol: as §2, §3, §4, §5

PI3Kd (p110d/p85a) = molecular target: T7, PI3Kd (p110d/p85a) (Homo sapiens, UniProt O00329); test: Lipid kinase inhibitory activity, ADP-Glo; assay type: biochemical; settings: δ
T7 construct: purchased Reaction Biology Corporation (RBC)
T7 sequence (O00329 whole entry): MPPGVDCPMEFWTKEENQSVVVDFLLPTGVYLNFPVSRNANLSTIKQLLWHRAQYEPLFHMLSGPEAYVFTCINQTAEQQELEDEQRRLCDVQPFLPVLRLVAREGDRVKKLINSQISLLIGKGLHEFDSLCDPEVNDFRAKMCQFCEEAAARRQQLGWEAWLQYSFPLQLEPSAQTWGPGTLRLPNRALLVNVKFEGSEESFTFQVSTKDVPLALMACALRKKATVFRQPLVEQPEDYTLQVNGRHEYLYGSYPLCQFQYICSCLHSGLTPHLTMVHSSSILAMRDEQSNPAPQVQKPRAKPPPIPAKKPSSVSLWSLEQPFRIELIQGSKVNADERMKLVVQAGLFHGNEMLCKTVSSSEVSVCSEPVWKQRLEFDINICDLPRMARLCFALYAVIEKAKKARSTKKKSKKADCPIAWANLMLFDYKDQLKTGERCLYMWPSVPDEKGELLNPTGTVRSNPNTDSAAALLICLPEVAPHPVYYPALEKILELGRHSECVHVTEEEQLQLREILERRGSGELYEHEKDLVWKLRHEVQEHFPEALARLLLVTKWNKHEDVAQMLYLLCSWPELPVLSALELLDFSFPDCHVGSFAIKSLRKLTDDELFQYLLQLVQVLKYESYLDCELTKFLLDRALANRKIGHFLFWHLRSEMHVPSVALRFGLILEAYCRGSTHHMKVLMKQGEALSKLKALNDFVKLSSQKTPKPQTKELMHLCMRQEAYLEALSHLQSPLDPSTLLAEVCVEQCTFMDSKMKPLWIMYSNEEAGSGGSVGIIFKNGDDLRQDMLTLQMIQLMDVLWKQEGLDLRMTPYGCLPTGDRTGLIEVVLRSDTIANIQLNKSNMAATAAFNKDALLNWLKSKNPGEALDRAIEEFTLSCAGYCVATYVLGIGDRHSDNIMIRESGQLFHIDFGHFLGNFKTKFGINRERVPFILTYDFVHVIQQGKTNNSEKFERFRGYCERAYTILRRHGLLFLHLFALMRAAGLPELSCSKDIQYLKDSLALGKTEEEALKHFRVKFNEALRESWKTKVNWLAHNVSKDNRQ
T7 sequence (P27986 whole entry partner): as the sequence (P27986 whole entry partner) above
Protocol: as §2, §3, §4, §5

PI3Kg (p110g) = molecular target: T8, PI3Kg (p110g) (Homo sapiens, UniProt P48736); test: Lipid kinase inhibitory activity, ADP-Glo; assay type: biochemical; settings: γ
T8 construct: purchased Reaction Biology Corporation (RBC)
T8 sequence (P48736 whole entry): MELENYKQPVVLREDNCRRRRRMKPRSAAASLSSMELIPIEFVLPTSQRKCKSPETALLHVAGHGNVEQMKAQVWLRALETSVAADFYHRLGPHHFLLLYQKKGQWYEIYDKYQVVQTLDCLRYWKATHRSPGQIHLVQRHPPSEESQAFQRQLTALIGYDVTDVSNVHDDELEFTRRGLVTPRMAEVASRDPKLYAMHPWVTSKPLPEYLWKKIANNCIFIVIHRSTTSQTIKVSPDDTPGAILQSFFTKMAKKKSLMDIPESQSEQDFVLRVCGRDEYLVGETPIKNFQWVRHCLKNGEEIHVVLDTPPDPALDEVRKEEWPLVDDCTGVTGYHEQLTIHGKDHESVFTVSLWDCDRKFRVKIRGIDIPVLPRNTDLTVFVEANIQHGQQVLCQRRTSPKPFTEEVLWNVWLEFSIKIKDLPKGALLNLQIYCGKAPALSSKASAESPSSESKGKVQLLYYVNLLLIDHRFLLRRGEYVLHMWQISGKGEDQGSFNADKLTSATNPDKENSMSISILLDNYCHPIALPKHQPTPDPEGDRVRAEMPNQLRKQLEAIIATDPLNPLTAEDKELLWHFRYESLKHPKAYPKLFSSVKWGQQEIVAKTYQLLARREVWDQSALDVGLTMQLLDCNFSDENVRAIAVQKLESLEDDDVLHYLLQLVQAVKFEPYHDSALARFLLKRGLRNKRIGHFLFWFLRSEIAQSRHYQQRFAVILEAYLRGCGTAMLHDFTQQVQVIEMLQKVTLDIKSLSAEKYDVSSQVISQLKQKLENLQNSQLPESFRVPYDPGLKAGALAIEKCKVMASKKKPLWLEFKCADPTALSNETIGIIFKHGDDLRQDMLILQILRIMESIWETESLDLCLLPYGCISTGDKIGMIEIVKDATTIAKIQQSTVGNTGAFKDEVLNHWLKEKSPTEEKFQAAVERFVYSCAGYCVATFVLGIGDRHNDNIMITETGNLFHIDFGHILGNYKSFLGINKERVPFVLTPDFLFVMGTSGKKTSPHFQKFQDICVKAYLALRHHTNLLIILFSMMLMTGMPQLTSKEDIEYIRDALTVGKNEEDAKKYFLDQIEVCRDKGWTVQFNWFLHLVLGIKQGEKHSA
Protocol: as §2, §3, §4, §5

PI3K = settings: U.S. Pat. No. 6,838,457; cited from earlier work
cancer cell = settings: U.S. Pat. No. 6,838,457; cited from earlier work

Metabolism to MTPP during permeation through human skin [1]: completely metabolize into MTPP | Saturation concentration in the gel formulation [2]: 58 mg/mL | Relative Purity ([3]; Day 0): 100% | Relative Purity ([3]; Day 5): 99% | Relative Purity ([3]; Day 10): 96% | Cumulative permeation, Compound 1.012 ([4]; 2 h): 0.0 μg/cm^2 | Hydrolysis of Cmpd. 1.012 to MTPP ([4]; 2 h): 100% | Cumulative permeation, Compound 1.012 ([4]; 4 h): 0.0 μg/cm^2 | Hydrolysis of Cmpd. 1.012 to MTPP ([4]; 4 h): 100% | Cumulative permeation, Compound 1.012 ([4]; 8 h): 0.0 μg/cm^2 | Hydrolysis of Cmpd. 1.012 to MTPP ([4]; 8 h): 100% | Cumulative permeation, Compound 1.012 ([4]; 24 h): 0.0 μg/cm^2 | Hydrolysis of Cmpd. 1.012 to MTPP ([4]; 24 h): 100% | Cumulative permeation, Compound 1.012 ([4]; 48 h): 0.0 μg/cm^2 | Hydrolysis of Cmpd. 1.012 to MTPP ([4]; 48 h): 100%
SMILES: CCOC(=O)Oc1cccc(-c2nc(N3CCOCC3)c3sccc3n2)c1 [Compound 1.012, Ethyl (3-(4-morpholinothieno[3,2-d]pyrimidin-2-yl)phenyl) Carbonate]

Metabolism to MTPP during permeation through human skin [1]: permeated as its intact compound | IC50 (MTOR/FRAP1): 218 nM | IC50 (PI3K (p110a(E542K)/p85a)): 5.6 nM | IC50 (PI3K (p110a(E545K)/p85a)): 6.3 nM | IC50 [5]: 7.2 nM | IC50 (PI3Ka (p110a/p85a)): 5.2 nM | IC50 (PI3Kb (p110b/p85a)): 38 nM | IC50 (PI3Kd (p110d/p85a)): 19 nM | IC50 (PI3Kg (p110g)): 90 nM | Cumulative permeation (intact compound) ([4]; 2 h): 0.23 μg/cm^2 | Cumulative permeation (intact compound) ([4]; 4 h): 4.74 μg/cm^2 | Cumulative permeation (intact compound) ([4]; 8 h): 15.85 μg/cm^2 | Cumulative permeation (intact compound) ([4]; 24 h): 43.32 μg/cm^2 | Cumulative permeation (intact compound) ([4]; 48 h): 70.13 μg/cm^2
SMILES: Oc1cccc(-c2nc(N3CCOCC3)c3sccc3n2)c1 [MTPP, 3-(4-morpholinothieno(3,2-d)pyrimidin-2-yl)phenol, reference compound]
PI3K inhibiting activity (PI3K): excellent PI3K inhibiting activity | Cancer cell growth inhibiting activity (cancer cell): cancer cell growth inhibiting activity
